20 molecules from ChEMBL document CHEMBL2010722, “Structure-activity relationship study of beta-carboline derivatives as haspin kinase inhibitors” (Bioorg Med Chem Lett, 2012) can be followed below.

Active and inactive are the calls of the source. The rule behind the calls is not given here.

Experiment [1] has as its target Serine/threonine-protein kinase haspin (Homo sapiens) (UniProt Q8TF76). Kind of experiment: Inhibition of human recombinant N-terminal MBP-tagged haspin kinase expressed in Escherichia coli DE3 at 10 uM after 10 mins by TR-FRET assay. (TR-FRET usually uses a lanthanide donor and a delayed reading to cut background.)
Experiment [2] addresses T1, Dual specificity tyrosine-phosphorylation-regulated kinase 2 (Homo sapiens, UniProt Q92630).
T1 sequence (Q92630 whole entry): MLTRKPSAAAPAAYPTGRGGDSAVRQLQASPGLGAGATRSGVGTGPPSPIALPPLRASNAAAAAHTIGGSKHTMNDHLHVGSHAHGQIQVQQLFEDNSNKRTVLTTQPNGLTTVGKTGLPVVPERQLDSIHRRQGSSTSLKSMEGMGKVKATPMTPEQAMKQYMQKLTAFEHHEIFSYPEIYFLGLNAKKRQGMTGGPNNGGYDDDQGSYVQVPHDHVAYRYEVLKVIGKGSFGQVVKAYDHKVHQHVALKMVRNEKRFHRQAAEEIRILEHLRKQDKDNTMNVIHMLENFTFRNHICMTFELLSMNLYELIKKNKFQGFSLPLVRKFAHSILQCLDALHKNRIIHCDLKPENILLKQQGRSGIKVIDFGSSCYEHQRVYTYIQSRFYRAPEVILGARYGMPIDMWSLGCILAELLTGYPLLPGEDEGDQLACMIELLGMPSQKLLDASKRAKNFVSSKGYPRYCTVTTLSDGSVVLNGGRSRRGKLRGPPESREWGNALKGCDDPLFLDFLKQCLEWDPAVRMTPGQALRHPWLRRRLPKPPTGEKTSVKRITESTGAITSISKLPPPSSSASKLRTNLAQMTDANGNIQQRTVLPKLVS

Experiment [3] concerns the target T2, Serine/threonine-protein kinase haspin (Homo sapiens, UniProt Q8TF76).
T2 sequence (Q8TF76 whole entry): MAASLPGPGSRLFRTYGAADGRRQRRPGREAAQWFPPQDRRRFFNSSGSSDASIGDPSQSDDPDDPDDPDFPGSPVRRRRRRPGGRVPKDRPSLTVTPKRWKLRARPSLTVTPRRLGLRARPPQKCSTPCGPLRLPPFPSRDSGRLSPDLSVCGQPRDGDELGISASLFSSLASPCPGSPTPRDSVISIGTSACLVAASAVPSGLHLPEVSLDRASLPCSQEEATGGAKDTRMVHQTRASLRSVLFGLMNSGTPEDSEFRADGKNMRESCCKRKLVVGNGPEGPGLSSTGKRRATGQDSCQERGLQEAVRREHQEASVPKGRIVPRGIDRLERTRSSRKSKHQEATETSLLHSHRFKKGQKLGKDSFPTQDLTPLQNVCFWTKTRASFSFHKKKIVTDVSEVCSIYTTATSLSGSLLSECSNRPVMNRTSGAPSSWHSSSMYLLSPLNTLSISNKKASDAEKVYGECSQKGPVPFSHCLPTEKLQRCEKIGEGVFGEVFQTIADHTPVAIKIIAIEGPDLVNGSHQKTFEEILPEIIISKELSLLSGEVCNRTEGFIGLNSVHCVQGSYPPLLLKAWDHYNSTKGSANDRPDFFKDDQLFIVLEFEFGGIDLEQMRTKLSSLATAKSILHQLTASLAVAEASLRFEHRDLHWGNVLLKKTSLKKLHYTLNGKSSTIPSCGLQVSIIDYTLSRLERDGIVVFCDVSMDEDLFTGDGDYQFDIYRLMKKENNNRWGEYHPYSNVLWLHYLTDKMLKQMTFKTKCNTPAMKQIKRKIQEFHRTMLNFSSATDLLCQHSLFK

The target of experiment [4] is T1, Dual specificity tyrosine-phosphorylation-regulated kinase 2. The experiment can be described thus: Inhibition of DYRK2.

For `Cc1nccc2c1[nH]c1cc(OCCCCN)ccc12`, the inhibition result in experiment [1] is “inactive”.

Usually IC50 stands for the concentration needed to halve the response being measured. Higher therefore signals a need for much substance. `COc1ccc2c(c1)c1ccnc(C)c1n2CCCCN`: the IC50 in experiment [2] worked out at 4900 nM; in experiment [3], 2400 nM.

`COc1ccc2c(c1)[nH]c1c(C)nccc12` [HARMINE]: in experiment [4], half-maximal inhibition (IC50) required 690 nM.

Regarding `Cc1nccc2c3ccc(F)cc3n(CCCCN)c12`, the IC50 in experiment [2] was more than 10000 nM; in experiment [3], 580 nM.

For the molecule `Cc1[nH]ccc2c1[nH]c1cc(=O)ccc12` [HARMOL], the IC50 in experiment [4] is 1500 nM; in experiment [3] it was 770 nM.

For `Cc1nccc2c3cc4c(cc3n(CCCCN)c12)OCO4`, the IC50 in experiment [2] came out at 4800 nM; in experiment [3], 500 nM.

For `COc1ccc2c3ccnc(C(C)C)c3n(CCCCN)c2c1`, the values for the IC50 in experiment [2] and in experiment [3] were more than 10000 nM and 460 nM, respectively.

On to `Cc1nccc2c3ccc(NS(C)(=O)=O)cc3n(CCCCN)c12`, for which the IC50 in experiment [2] was more than 10000 nM; in experiment [3], 690 nM.

Consider `Cc1nccc2c1[nH]c1cc(OCCCN)ccc12`, for which the inhibition entry in experiment [1] was “inactive”.

For `COc1ccc2c3ccnc(C)c3n(CCCCN)c2c1Cl`, the IC50 in experiment [2] is 8000 nM; in experiment [3] it was 830 nM.

In the case of `COc1ccc2c3ccnc(C)c3n(CCCCN)c2c1`, the results for the IC50 in experiment [2] and in experiment [3] were more than 10000 nM and 170 nM, respectively.

Take `Cc1nccc2c3ccc(OC(C)(C)C)cc3n(CCCCN)c12`: the IC50 was more than 10000 nM in experiment [2] and 4600 nM in experiment [3].

Turning to `CNCCCCn1c2cc(OC)ccc2c2ccnc(C)c21`, the IC50 in experiment [2] was more than 10000 nM; in experiment [3] it was 340 nM.

In the case of `COc1cccc2c3ccnc(C)c3n(CCCCN)c12`, the IC50 in experiment [2] was more than 10000 nM; in experiment [3], 220 nM.

As for `NCCCCn1c2cc(O)ccc2c2ccnc(C(F)(F)F)c21`, the IC50 in experiment [2] is 8500 nM; in experiment [3], 220 nM.

`COc1cccc2c1c1ccnc(C)c1n2CCCCN`: the IC50 came to 7000 nM in experiment [2] and 2700 nM in experiment [3].

Regarding `Cc1nccc2c3ccc(O)cc3n(CCCCN)c12`, the IC50 in experiment [2] is more than 10000 nM; in experiment [3], 160 nM.

Regarding `COc1ccc2c3ccnc(C)c3n(CCCCN(C)C)c2c1`, the IC50 in experiment [2] is more than 10000 nM; in experiment [3] it was 470 nM.

As for `CCc1nccc2c3ccc(OC)cc3n(CCCCN)c12`, the values for the 50% inhibitory concentration (IC50) in experiment [2] and in experiment [3] were more than 10000 nM and 190 nM, respectively.

As for `COc1ccc2c3ccncc3n(CCCCN)c2c1`, the IC50 in experiment [2] is more than 10000 nM; in experiment [3] it was 300 nM.
